With `Cc1cc(C)c(S(=O)(=O)N(C)C)cc1[N+](=O)[O-]` [Example 2, 2,4-Dimethyl-5-nitro(N,N-dimethyl)benzenesulfonamide], the melting point (in general, the temperature, or range, at which the solid turns liquid) is 113 °C.
The compound `COc1cc(C)c(S(=O)(=O)N(C)C)cc1[N+](=O)[O-]` [Example 3, 4-Methoxy-2-methyl-5-nitro(N,N-dimethyl)benzenesulfonamide] returned a melting point of 130 to 132 °C.
